In the supplement of paper PMC11061612:

Columns and labels:
[1] = system: COLO-320-HSR (Colorectal Carcinoma); assay: Bliss excess, mean over the matrix (fraction); higher = more synergy
Procedure, shortened: (§1)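 Bliss excess equals the observed combination effect minus the expected value EA + EB − EA·EB, where EA and EB are the effects of each agent alone. Combination Emax is the second-highest inhibition within the matrix. Inhibition was scaled from CellTiter-Glo 2.0 luminescence, with 0 set by vehicle wells and 1 by blank wells, after 72 hours of two-drug dosing of cells plated in 1536-well plates.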

[2] = system: OS-RC-2 (Kidney Carcinoma); assay: as above
Procedure, shortened: as §1

[3] = system: TT (Thyroid Gland Carcinoma); assay: as above
Procedure, shortened: as §1

8-MG-BA (Glioblastoma) = assay: combination Emax (second highest fraction inhibited in the dose matrix, 72 h); higher = more inhibition; extreme values may be limits of the assay
Procedure, shortened: as §1

[4] = system: A3-KAW (B-Cell Non-Hodgkin's Lymphoma); assay: as above
Procedure, shortened: as §1

[5] = system: A549 (Lung Adenocarcinoma); assay: as above
Procedure, shortened: as §1

[6] = system: CCK-81 (Colorectal Carcinoma); assay: as above
Procedure, shortened: as §1

[7] = system: COLO-824 (Breast Carcinoma); assay: as above
Procedure, shortened: as §1

FU97 (Gastric Carcinoma) = assay: as above
Procedure, shortened: as §1

GI-ME-N (Neuroblastoma) = assay: as above
Procedure, shortened: as §1

[8] = system: HCC1954 (Breast Carcinoma); assay: as above
Procedure, shortened: as §1

[9] = system: JSC-1 (B-Cell Non-Hodgkin's Lymphoma); assay: as above
Procedure, shortened: as §1

[10] = system: KARPAS-422 (B-Cell Non-Hodgkin's Lymphoma); assay: as above
Procedure, shortened: as §1

[11] = system: NCI-H1581 (Non-Small Cell Lung Carcinoma); assay: as above
Procedure, shortened: as §1

[12] = system: NCI-H1650 (Lung Adenocarcinoma); assay: as above
Procedure, shortened: as §1

[13] = system: NCI-H2066 (Squamous Cell Lung Carcinoma); assay: as above
Procedure, shortened: as §1

NCI-H2591 (Mesothelioma) = assay: as above
Procedure, shortened: as §1

[14] = system: ONS-76 (Other Solid Carcinomas); assay: as above
Procedure, shortened: as §1

[15] = system: TT2609-C02 (Thyroid Gland Carcinoma); assay: as above
Procedure, shortened: as §1

[16] = system: VCaP (Prostate Carcinoma); assay: as above
Procedure, shortened: as §1

SMILES	Bliss excess [1]	Bliss excess [2]	Bliss excess [3]	combination Emax (8-MG-BA (Glioblastoma))	combination Emax [4]	combination Emax [5]	combination Emax [6]	combination Emax [7]	combination Emax (FU97 (Gastric Carcinoma))	combination Emax (GI-ME-N (Neuroblastoma))	combination Emax [8]	combination Emax [9]	combination Emax [10]	combination Emax [11]	combination Emax [12]	combination Emax [13]	combination Emax (NCI-H2591 (Mesothelioma))	combination Emax [14]	combination Emax [15]	combination Emax [16]
CN(C)CCCOc1ccc(-c2ccc3ncc4c(c3c2)n(C2CCOCC2)c(=O)n4C)cn1 [AZD0156] + C=CCn1c(=O)c2cnc(Nc3ccc(N4CCN(C)CC4)cc3)nc2n1-c1cccc(C(C)(C)O)n1 [AZD1775] (first compound max 1 µM, partner max 1 µM)	-0.0454	-0.0652	-0.0951	0.74	0.95	0.317	0.903	0.644	0.367	0.321	0.181	0.868	0.607	0.331	0.385	0.208	0.191	0.675	0.334	0.553
CN(C)CCCOc1ccc(-c2ccc3ncc4c(c3c2)n(C2CCOCC2)c(=O)n4C)cn1 [AZD0156] + CCN(CCO)CCCOc1ccc2c(Nc3cc(CC(=O)Nc4cccc(F)c4)[nH]n3)ncnc2c1 [AZD2811] (first compound max 1 µM, 7x7, partner max 1 µM)	-0.0278	-0.0312	-0.0871	0.215	0.572	0.595	0.159	0.818	0.188	0.0704	0.0882	0.19	0.641	0.271	0.101	0.192	0.112	0.293	0.258	0.118
CN(C)CCCOc1ccc(-c2ccc3ncc4c(c3c2)n(C2CCOCC2)c(=O)n4C)cn1 [AZD0156] + C[C@@H]1COCCN1C2=NC(=NC(=C2)C3(CC3)[S@](=N)(=O)C)C4=C5C=CNC5=NC=C4 [AZD6738] (first compound max 1 µM, 7x7, partner max 10 µM)	-0.0146	-0.0419	-0.0583	0.834	0.995	0.789	0.912	0.712	0.414	0.697	0.435	0.916	0.653	0.418	0.376	0.35	0.293	0.942	0.144	0.359
CN(C)CCCOc1ccc(-c2ccc3ncc4c(c3c2)n(C2CCOCC2)c(=O)n4C)cn1 [AZD0156] + O=C(c1cc(Cc2n[nH]c(=O)c3ccccc23)ccc1F)N1CCN(C(=O)C2CC2)CC1 [Olaparib] (first compound max 3 µM, partner max 3 µM)	0.104	-0.0432	-0.0297	0.4	0.909	0.374	0.394	0.383	0.422	0.193	0.218	0.582	0.56	0.412	0.226	0.215	0.135	0.235	0.152	0.296
C=CCn1c(=O)c2cnc(Nc3ccc(N4CCN(C)CC4)cc3)nc2n1-c1cccc(C(C)(C)O)n1 [AZD1775] + C[C@@H]1COCCN1C2=NC(=NC(=C2)C3(CC3)[S@](=N)(=O)C)C4=C5C=CNC5=NC=C4 [AZD6738] (first compound max 1 µM, partner max 10 µM)	0.0852	-0.0604	-0.0676		0.992	0.829	0.944	0.851	0.373	0.548	0.77	0.905	0.786	0.771	0.53	0.605	0.389	0.942	0.393	0.602
CN(CCO)CC[C@H](CSc1ccccc1)Nc1ccc(S(=O)(=O)NC(=O)c2ccc(N3CCC([C@@H](O)c4ccccc4-c4ccc(Cl)cc4)CC3)cc2)cc1S(=O)(=O)C(F)(F)F [AZD4320] + CN(C)CCCOc1ccc(-c2ccc3ncc4c(c3c2)n(C2CCOCC2)c(=O)n4C)cn1 [AZD0156] (first compound max 1 µM, 7x7, partner max 1 µM)	-0.0136	-0.0706	-0.0778	0.0798	0.228	0.175		1	0.258	0.156	0.327	0.116	0.957	0.19	0.0865	0.619	0.13	0.178	0.148	0.19
CN(CCO)CC[C@H](CSc1ccccc1)Nc1ccc(S(=O)(=O)NC(=O)c2ccc(N3CCC([C@@H](O)c4ccccc4-c4ccc(Cl)cc4)CC3)cc2)cc1S(=O)(=O)C(F)(F)F [AZD4320] + Cc1cc2ncnn2cc1Nc1ncc2c(n1)n(C1CCOCC1)c(=O)n2C [AZD7648] (first compound max 1 µM, 7x7, partner max 10 µM)	-0.0099	-0.0524	-0.0694	0.168	0.344	0.369	0.111	1	0.32	0.153	0.48	0.246		0.271	0.245	0.885	0.188	0.173	0.182	0.165
COc1nnc2ccc(N3CCC(c4ccc(OCCN5CCN(C)C(=O)[C@H]5C)cc4)CC3)nn12 [AZD5153] + CN(CC[C@H](CSC1=CC=CC=C1)NC2=C(C=C(C=C2)S(=O)(=O)NC(=O)C3=CC=C(C=C3)N4CCC(CC4)[C@H](C5=CC=CC=C5C6=CC=C(C=C6)Cl)O)S(=O)(=O)C(F)(F)F)CCO [AZD4320] (first compound max 1 µM, 7x7, partner max 1 µM)		0.0115		0.772	1	0.735		1		0.246	0.322	0.71			0.419		0.395		0.424	
C[C@@H]1COCCN1c1cc(C2([S@](C)(=N)=O)CC2)nc(-c2ccnc3[nH]ccc23)n1 [AZD6738] + O=C(c1cc(Cc2n[nH]c(=O)c3ccccc23)ccc1F)N1CCN(C(=O)C2CC2)CC1 [Olaparib] (first compound max 10 µM, 7x7, partner max 10 µM)	-0.0357	-0.0085	-0.0219	0.85	0.984	0.809		0.595	0.332	0.486	0.353	0.822	0.556	0.528	0.349	0.388	0.348	0.894	0.316	0.374
CC(=O)c1c(C)c2cnc(Nc3ccc(N4CCNCC4)cn3)nc2n(C2CCCC2)c1=O [Palbociclib] + CN(CC[C@H](CSC1=CC=CC=C1)NC2=C(C=C(C=C2)S(=O)(=O)NC(=O)C3=CC=C(C=C3)N4CCC(CC4)[C@H](C5=CC=CC=C5C6=CC=C(C=C6)Cl)O)S(=O)(=O)C(F)(F)F)CCO [AZD4320] (first compound max 10 µM, 7x7, partner max 1 µM)		-0.0999		0.337	0.867	0.723		1		0.211	0.32	0.59			0.184		0.249		0.29	
CCc1c2c(nc3ccc(O)cc13)-c1cc3c(c(=O)n1C2)COC(=O)[C@]3(O)CC [SN-38] + O=C(c1cc(Cc2n[nH]c(=O)c3ccccc23)ccc1F)N1CCN(C(=O)C2CC2)CC1 [Olaparib] (first compound max 0.3 µM, 7x7, partner max 10 µM)	-0.0523		0.0545	0.986		0.817	0.587		0.277	0.494		0.973	0.957	0.722	0.575	0.0964	0.575	0.829		0.459
C[C@@H](c1ccc2nccn2c1)n1nnc2ncc(-c3cnn(C)c3)nc21 [Savolitinib] + CN(CC[C@H](CSC1=CC=CC=C1)NC2=C(C=C(C=C2)S(=O)(=O)NC(=O)C3=CC=C(C=C3)N4CCC(CC4)[C@H](C5=CC=CC=C5C6=CC=C(C=C6)Cl)O)S(=O)(=O)C(F)(F)F)CCO [AZD4320] (first compound max 1 µM, 7x7, partner max 1 µM)		-0.0618		0.116	0.128	0.165		1		0.229	0.412	0.117			0.182		0.15		0.174	
CC(=O)Nc1cccc(-n2c(=O)n(C3CC3)c(=O)c3c(Nc4ccc(I)cc4F)n(C)c(=O)c(C)c32)c1 [Trametinib] + Cc1nc(-c2cn3c(n2)-c2ccc(-c4cnn(C(C)(C)C(N)=O)c4)cc2OCC3)n(C(C)C)n1 [Taselisib] (first compound max 1 µM, 7x7, partner max 10 µM)	0.0338	-0.0198	0.0288	0.863	0.726	1	0.98	0.976		0.77	0.949	0.631	0.63	0.586	0.695	0.728	0.543	0.975	0.821	0.47
